Data on one compound can be found in patent US20200000873A1, “METHODS FOR IMPROVING THE COGNITIVE FUNCTIONS OF A SUBJECT” (The Regents of the University of California, priority 2017, published 2020).

Data set [1] deals with Brown Norway rats. As to the kind of experiment: Probabilistic reversal learning task (PRLT), single (acute) administration of oxytocin. The format is in vivo, rat. The text has this: (§1) Probabilistic learning, an aspect of executive function, can be assessed in rodents using a probabilistic reversal learning task (PRLT). A PRLT is typically a 1-hour test using two recessed lights in the back of the operant chamber as stimuli (see, FIGS. 2, 3 and 4). After illumination and subsequent extinguishing of the magazine light via nose-poke, a 2 second inter-trial interval occurs, which is then immediately followed by a 10 second period during which two apertures are illuminated wherein the rat can respond via nose-poke. One of the two stimuli is designated the target stimulus, and responses to it are rewarded more frequently (e.g., rewarded 80% of the time) (aperture light extinguished and reward delivered into the magazine) and punished less frequently (e.g., 20% of the time) (aperture light extinguished and house light illuminated for a 4-second timeout period during which no reward was delivered). The other stimulus was designated the non-target stimulus, to which responses are rewarded less frequently (e.g., 20% of the time) and punished more frequently (80% of the time). Initial target and non-target locations are alternated among the testing chambers such that the first target of the session is, for example, the left light in four of the eight chambers, and the right in the others. […] After first criterion acquisition, the target and non-target locations are reversed. The subject then has to recognize that this change, or “switch,” had occurred and adjust its responses accordingly. After another 8 consecutive correct responses, the ratios are switched again. This pattern is repeated for the remainder of the 1-hour session. The number of switches the subject is able to complete within the testing period was the primary outcome variable of PRLT to measure reversal learning. An additional primary outcome measure, trials to first criterion, provided a measure of initial reinforcement learning without the confound of reversal learning included.
(§2) Several latency measures included mean target latency (millisecond (ms) to respond in the target stimulus), mean non-target latency (ms to respond in the non-target stimulus), and mean reward latency (ms to collect the reward).
(§3) Rats (Brown Norway rats or Long Evans rats) executive function was tested using a nine-choice operant box (e.g., see FIG. 2). The nine-choice operant box has nine depressions in which a rat can poke its nose into (see FIG. 2), where each depression comprises a light emitting diode (LED). A rat was placed in the box and two of the LEDs were illuminated (e.g., see FIG. 3). One LED, the ‘target’, rewarded a rat's nose poke 80% of the time with food while the other LED, the ‘nontarget’, rewarded a rat's nose poke only 20% of the time. After eight consecutive responses in which the ‘target’ LED was selected, the reward ratios for the two LED's were switched, and the next block of testing was begun. Brown Norway rats were used as test subjects while Long Evans rats were used as controls.
(§4) Scoring of executive function was based on the number of switches a rat was able to complete within a one-hour test period, as well as the number of block changes a rat can progress through. In particular, the scoring and conclusions of executive function were made as follows:
(§5) A primary measure of executive function. The number of times the ‘target’ stimulus switches following eight consecutive “correct” responses by the subject. The number of switches a rat is able to complete within a one-hour test period indicates how quickly the rat is able to detect and adjust to reversals. The more switches completed by the rat, the better the executive function of the rat.
(§6) A primary measure of executive function. Indicates how quickly rat was able to progress through the blocks—the block changes whenever the target switches, so if the subject completed five blocks and is working on the sixth when the one hour testing session ends. […]

Data set [2] has as its system Brown Norway rats. As to the kind of experiment: Probabilistic reversal learning task (PRLT) after long-term (21 days) administration of oxytocin. The format is in vivo, rat.
Source text: as §1, §2, §3, §4, §5, §6

The next data set relates to humans. As to conditions: humans treated with oxytocin, reported; cited from earlier work.
[3] abbreviates: oxytocin 1.00 mg/kg, Brown Norway rats.

Turning to `CC[C@H](C)[C@@H]1NC(=O)[C@H](Cc2ccc(O)cc2)NC(=O)[C@@H](N)CSSC[C@@H](C(=O)N2CCC[C@H]2C(=O)N[C@@H](CC(C)C)C(=O)NCC(N)=O)NC(=O)[C@H](CC(N)=O)NC(=O)[C@H](CCC(N)=O)NC1=O` [oxytocin], in the data set with Brown Norway rats [1] (BN rats, 1.00 mg/kg vs. lower doses 0.04 mg/kg and 0.20 mg/kg), the “executive function, effect of dose” value was “dose dependent”. Further, the “number of switches in the PRLT” value is given as “fewer switches” with Brown Norway rats [1] (acute OT 0.04 mg/kg, BN rats vs. vehicle-treated LE rats); “LE rats exhibited more switches” in the data set on Brown Norway rats [2] (BN rats previously treated with 0.04 mg/kg OT compared with LE rats); “LE rats exhibited more switches” in the data set on Brown Norway rats [2] (BN rats previously treated with 0.2 mg/kg OT compared with LE rats); “significantly more switches” in the data set on Brown Norway rats [2] (BN rats treated with 1 mg/kg OT vs. vehicle-treated BN rats, long-term administration). The “total trials to initial criterion” value in the data set with Brown Norway rats [1] (acute OT 1 mg/k/g, BN rats vs. both vehicle-treated BN and LE rats) is reported as “reduced”. Also, in the data set with Brown Norway rats [1] (acute OT 1 mg/kg, BN rats vs. vehicle), the “total number of switches completed in the PRLT” value was “increased”. Further, the “probabilistic learning of subjects” value in the data set on Brown Norway rats [1] (administration of oxytocin) is reported as “significantly improved”. In addition, the “improvement in executive function” value in the data set with Brown Norway rats [1] (setting [3]) is given as “significant”. Further, the number of switches result in the data set with Brown Norway rats [1] (oxytocin administered to Brown Norway rats, dose not stated) is “increased”. For the same compound, the “executive function of the animal subjects” value in the data set on Brown Norway rats [1] (oxytocin administered to animal subjects) is “significantly improved”. The “trials to first criterion” value in the data set on Brown Norway rats [2] (1 mg/kg OT vs. vehicle in BN rats, long-term administration) is recorded as “appears to reduce”. For the same compound, the “executive function after discontinuation of OT” value with Brown Norway rats [2] (BN rats, 1.0 mg/kg OT for 21 days, tested approximately one week or more after discontinuation) is “persistent improvement”. For the same compound, in the data set with Brown Norway rats [2] (setting [3]), the “time post treatment at which improvement of executive function was seen” value was 7 days. Moreover, the “cognitive performance and memory” value with humans is on record as “Impairments”.
